{
  "source": "patent US20250235465A1",
  "about": "“USE OF SODIUM TRANS-[TETRACHLORIDOBIS(1H-INDAZOLE)RUTHENATE(III)] TO AMELIORATE PROTEASOME INHIBITOR RESISTANCE” (Bold Therapeutics Inc., priority 2021, published 2025)",
  "key": {"MM.1S": {"system": "MM.1S", "procedure": "(§1) The luminescent readings obtained in the assay were used to measure the percentage of cell death following treatment with increasing doses of BOLD-100 for 24 hours. Each cell line was treated in triplicate and the average cell death was used to calculate the IC50 or […] inhibitory concentration dose in these cell lines using a nonlinear regression fit.\n(§2) Proteasome inhibitors (PI) and immunomodulatory drugs (IMiD) are used as standards of care treatments in MM disease in the clinic. […] Specifically, the MM.1S cell line was developed to acquire partial resistance to proteasome inhibitors bortezomib (MM.1S BR) and carfilzomib (MM.1S CR) by treating the MM.1S cell line with increasing doses of the drugs for about 6 months and the OPM2 cell line was developed to acquire partial resistance to IMiD lenalidomide (OPM2 LR) and pomalidomide (OPM2 PR) by treating the OPM2 cell line with increasing doses of the drugs for about 6 months."}, "[1]": {"system": "OPM2 LR (lenalidomide resistant)", "conditions": "24 hours", "procedure": "as §1, §2"}, "[2]": {"system": "OPM2 PR (pomalidomide resistant)", "conditions": "read-out: BOLD-100 IC50, 24 hours, Example 2, FIG. 2B", "procedure": "as §1, §2"}, "OPM2": {"system": "OPM2", "conditions": "OPM2, 24 hours", "procedure": "as §1, §2"}, "H1112": {"system": "H1112", "conditions": "H1112, 24 hours, Table 1", "procedure": "as §1"}, "JJN3": {"system": "JJN3", "conditions": "JJN3, 24 hours, Table 1", "procedure": "as §1"}, "KMS27": {"system": "KMS27", "conditions": "KMS27, 24 hours, Table 1", "procedure": "as §1"}, "MOLP8": {"system": "MOLP8", "conditions": "MOLP8, 24 hours, Table 1", "procedure": "as §1"}, "XG-1": {"system": "XG-1", "conditions": "XG-1, 24 hours, Table 1", "procedure": "as §1"}, "XG-2": {"system": "XG-2", "conditions": "XG-2, 24 hours, Table 1", "procedure": "as §1"}, "[3]": {"system": "MM.1S BR (bortezomib resistant)", "text": "as §2"}, "[4]": {"system": "MM.1S BR in presence of HS-5", "conditions": "MM.1S BR in co-culture with HS-5, FIG. 5", "procedure": "(§3) Bone marrow stromal cells are understood to provide a protective environment for cells, insulating bone marrow cells from drug effects. […] To do this, a co-culture assay was carried out, in which MM cells were grown in co-culture with a bone marrow stromal cell line HS-5. MM cell lines adhere to stromal cells in culture and the stromal cells can provide a protective effect against drug induced apoptosis/growth inhibition. Dose response curves were generated for the PI-sensitive cell line MM.1 S, and the two PI resistant lines MM.1S BR and MM.1S CR in presence of HS-5 by standard CTG assay."}, "[5]": {"system": "MM.1S CR in presence of HS-5", "conditions": "MM.1S CR in co-culture with HS-5, FIG. 5", "procedure": "as §3"}, "[6]": {"system": "MM.1S in presence of HS-5", "conditions": "MM.1S in co-culture with HS-5, FIG. 5", "procedure": "as §3"}, "[7]": {"system": "bone marrow cell line HS-5", "conditions": "bone marrow stromal cell line HS-5, FIG. 5", "procedure": "as §3"}, "[8]": {"conditions": "read-out: BOLD-100 IC50, 24 hours, Example 2, FIG. 2A"}},
  "note": "Where two headings read alike, the source gives them in different places.",
  "data": [
    {"smiles": "[Cl][Ru]([Cl])([Cl])[Cl].[Na+].c1ccc2[nH]ncc2c1.c1ccc2[nH]ncc2c1", "note": "[BOLD-100, Sodium trans-[tetrachloridobis(1H-indazole)ruthenate(III)]]", "values": [
      {"measurement": "IC50", "setting": "MM.1S; 24 hours, Table 1", "value": 106, "unit": "µM"},
      {"measurement": "IC50", "setting": "MM.1S; [8]", "value": 83, "unit": "µM"},
      {"measurement": "sensitivity to BOLD-100 compared to parental OPM2", "setting": "[1]; FIG. 2B", "value": "higher sensitivity"},
      {"measurement": "IC50", "setting": "[1]; Table 1", "value": 108, "unit": "µM"},
      {"measurement": "IC50", "setting": "[2]", "value": 51, "unit": "µM"},
      {"measurement": "IC50", "setting": "OPM2; Table 1", "value": 130, "unit": "µM"},
      {"measurement": "IC50", "setting": "OPM2; read-out: BOLD-100 IC50, Example 2, FIG. 2B", "value": 120, "unit": "µM"},
      {"measurement": "IC50", "setting": "H1112", "value": 72, "unit": "µM"},
      {"measurement": "IC50", "setting": "JJN3", "value": "Not reached"},
      {"measurement": "IC50", "setting": "KMS27", "value": 128, "unit": "µM"},
      {"measurement": "IC50", "setting": "MOLP8", "value": 115, "unit": "µM"},
      {"measurement": "IC50", "setting": "XG-1", "value": 49, "unit": "µM"},
      {"measurement": "IC50", "setting": "XG-2", "value": 54, "unit": "µM"},
      {"measurement": "IC50", "setting": "[3]; [8]", "value": 23, "unit": "µM"},
      {"measurement": "IC50", "setting": "[3]; read-out: BOLD-100 IC50, 24 hours, FIG. 2A legend", "value": 23, "unit": "µM"},
      {"measurement": "impact on viability", "setting": "[4]", "value": "negatively impact the viability"},
      {"measurement": "impact on viability", "setting": "[5]", "value": "negatively impact the viability"},
      {"measurement": "impact on viability", "setting": "[6]", "value": "negatively impact the viability"},
      {"measurement": "impact on viability", "setting": "[7]", "value": "minimal impact"}
    ]}
  ]
}
